Tests used:
[1] = Oral bioavailability in rat at 2 umol/kg; assay type: ADME, organism-based; settings: in vivo
[2] = Half life in rat; assay type: ADME, organism-based; settings: in vivo

With `COc1ccc(-n2nc(C[C@H](C(=O)O)c3cccc(C)c3)cc2-c2ccc(Cl)c(Cl)c2)cc1` as the compound, how does the bioavailability [1] read?
The bioavailability was 100%.

What about the half-life [2] of the same compound?
Its half-life is 5.6 h.
